Source: patent publication US20210060044A1, “METHODS FOR TREATING BLADDER CANCER BY ACTIVATION OF HEDGEHOG SIGNALING USING A M[…]” (POSTECH Research and Business Development Foundation, priority 2019, published 2021)
Read-outs that look alike come from different tables or passages of the source.

What was measured:
[1] = test system: luminal markers (Upk1a, Upk1b, Upk2, Upk3a, Upk3b, Krt20, Krt18); details: tumor allografts; normalized to Krt5
Method: (§1) Human or mouse bladder samples were snap-frozen in liquid nitrogen, homogenized with a mortar and a pestle, and RNA was extracted using an RNeasy Plus Mini Kit (Qiagen).
(§2) Subsequently, the RNA samples were dissolved in RNase-free water, and their concentration and purity were measured with a spectrophotometer. The TAE/formamide electrophoresis method (Masek et al., 2005) was used for RNA quality analysis. For quantitative RT-PCR of mRNA transcripts, first-strand cDNA was synthesized using a high-capacity cDNA reverse transcriptase kit (Applied Biosystems) containing oligo dT. Quantitative RT-PCR was performed using SYBR Green Supermix (Applied Biosystems) and a one-step cycler (Applied Biosystems), and gene expression was normalized to the housekeeping gene HPRT1.
(§3) To evaluate the effect of DNA methyltransferase inhibition on the growth of bladder cancer under immunocompromised conditions, nude mice (14 mice) orthotopically injected with BBN-induced bladder tumor cells were divided into a vehicle control (7 mice) and a 5′-azacitidine-treated group (7 mice), and then treated with a vehicle and 5′-azacitidine for 2 weeks, respectively. In addition, allograft sections of the vehicle control or 5′-azacitidine-treated mice were subjected to H&E staining, and the experimental scheme is shown in FIG. 4A.

J82 cells = details: J82 orthotopic xenograft, treated one month; vehicle: full-fledged muscle-invasive carcinoma
Method: (§4) To investigate the functional role of SHH expression in the growth of human bladder tumors and the effects of the Hh/BMP signaling feedback between tumors and the stroma on the subtype conversion of human muscle-invasive urothelial carcinoma, xenografts in which J82 cells were orthotopically injected into immunocompromised mice (NOD/SCID/IL2Rgnull) (14 mice) were treated with 5′-azacitidine for one month, and orthotopic xenografts in the mice treated with the vehicle control (7 mice) or 5′-azacitidine (7 mice) were subjected to H&E staining.

BBN-induced tumors = details: TM three days, transplantation, treatment 1.5 months
Method: (§6) For a gene deletion experiment, Col1a2^CreER (RRID: IMSR_JAX: 029235) mice were mated with the Smo^flox/flox (RRID: IMSR_JAX: 007926) or Gli2^flox/flox (RRID: IMSR_JAX: 004526) strains, thereby obtaining Col1a2^CreER; Smo^flox/flox or Col1a2^CreER;Gli2^flox/flox mice.
The mice were administered 8 mg of tamoxifen (TM; Sigma) per 30 g of body weight by oral gavage for three consecutive days. Male mice aged 8 to 10 weeks were used. […] The dosing duration is described in the brief description of the drawings. In each experiment, the mice were randomly selected for a drug/TM or control-treated group. The experiments involving mice were performed under isoflurane anesthesia.
Bladder tumors were dissociated into single cells as described above. The cells were resuspended in 80 ml DMEM containing 50% Matrigel (BD Bioscience), and then submucosally injected into the anterior aspect of the bladder dome using a 29-gauge insulin syringe. An abdominal incision and skin were closed with a 4-0 nylon suture, and the surgical site was disinfected with alcohol. Bladder tumor organoids were selected, and resuspended in a 50% organoid medium and 50%

[2] = test system: BBN-induced muscle-invasive urothelial carcinoma; details: Col1a2CreER;Smoflox/flox or Col1a2CreER;Gli2flox/flox mice, BBN 6 months
Method: as §6
The mice were administered 8 mg of tamoxifen (TM; Sigma) per 30 g of body weight by oral gavage for three consecutive days. Male mice aged 8 to 10 weeks were used. […] In each experiment, the mice were randomly selected for a drug/TM or control-treated group. The experiments involving mice were performed under isoflurane anesthesia. All procedures were performed according to a protocol approved by the Institutional Animal Care and Use Committee at POSTECH (IACUC number: POSTECH-2017-0094).
(§7) 0.1% N-butyl-N-4-hydroxybutyl nitrosamine (BBN, TCI) was dissolved in drinking water, and the BBN-containing water was placed in a dark bottle, and provided ad libitum to mice for 4 to 6 months. The BBN-containing water was replaced twice a week. Bladders were collected and analyzed 4 to 6 months after BBN administration.

Shh gene [3] = details: tumor organoids, 1 μM for four consecutive days
Method: as §2

Shh gene [4] = details: orthotopic BBN-induced mouse tumor, 1 mg per kg every other day for 2 weeks
Method: as §1, §2

[5] = test system: BBN-induced bladder tumor cells
Method: (§8) The mice were administered 8 mg of tamoxifen (TM; Sigma) per 30 g of body weight by oral gavage for three consecutive days. Male mice aged 8 to 10 weeks were used. […] In each experiment, the mice were randomly selected for a drug/TM or control-treated group. The experiments involving mice were performed under isoflurane anesthesia.
Bladder tumors were dissociated into single cells as described above. The cells were resuspended in 80 ml DMEM containing 50% Matrigel (BD Bioscience), and then submucosally injected into the anterior aspect of the bladder dome using a 29-gauge insulin syringe.
(§9) Tumor specimens were fixed in 10% neutral-buffered formalin for 12 hours, embedded in paraffin, and then sectioned into 4-um thick sections using a microtome. The slides were stained with hematoxylin and counter-stained with eosin for histological analysis. For immunostaining, tumor samples were embedded in an OCT compound (Tissue-Tek) and sectioned into 10-um-thick sections with a cryostat (Leica).
To evaluate the effect of the inhibition of DNA methyltransferase (DNMT) on the growth of bladder cancer, recently established transplantation models were used, and these models allow the proliferation of tumor cells transplanted in a microenvironment in vivo by injecting bladder cancer cells into the wall of the bladder dome.

[6] = test system: CpG shore upstream of the CpG island of the Shh promoter region; details: 1 mg per kg every other day for 2 weeks; vehicle control 62%
Method: as §8
The DNA methylation status of mouse and human Shh was confirmed using genomic DNA bisulfite sequencing. For bisulfite conversion, 1 μg of genomic DNA was converted using a MethylEdge Bisulfite Conversion System (Promega) according to the manufacturer's instructions. The genomic sequences of the regulatory regions of mouse Shh and human SHH were obtained from the NCBI nucleotide database (Mus musculus: NC_000071.6, Homo sapiens: NG_007504.2), and the CpG island (island) and CpG shores in the regulatory region were identified using Methprimer 2.0 (Li and Dahiya, 2002) (RRID: SCR_010269). The 2kb regions upstream and downstream of the CpG island were referred to as a “CpG upshore” and a “CpG downshore,” respectively. […]
(§10) The sequencing data was assembled using SnapGene software (https://snapgene.com/, RRID: SCR_015053) and the MUSCLE: multiple sequence alignment tool (haps://www.ebi.ac.uk/Tools/msa/muscle/ RRID: SCR_011812). […] The methylated CpG sites were counted and distinguished from unmethylated CpG sites.

J82 = test system: J82
Method: (§5) Frozen human bladder tissue samples were obtained from the tissue bank of Seoul National University Hospital. For fresh bladder tumor samples, 0.5 to 1-cm^3 bladder tissue specimens were obtained from patients undergoing cystectomy or TURBT according to a protocol approved by the SNUH Institutional Review Board (IRB No.: 1607-135-777). Informed consent to patient information provision and publishing was obtained from the patients. The cancer tissues were evaluated before transport to POSTECH for additional analysis. For experiments for bladder cancer cell lines, J82 (RRID: CVCL_0359), T24 (RRID: CVCL_0554) and TCC (RRID: CVCL_1738) were used. All cell lines were authenticated by a STR profiling method, and tested negative for mycoplasma contamination.
as §2

TCC-SUP = test system: TCC-SUP
Method: as §5, §2

T24 = test system: T24
Method: as §5, §2

[7] = test system: CpG shore upstream of the CpG island of the Shh promoter region; details: tumor organoids, 1 μM for four consecutive days; vehicle control 73%
Method: The DNA methylation status of mouse and human Shh was confirmed using genomic DNA bisulfite sequencing. For bisulfite conversion, 1 μg of genomic DNA was converted using a MethylEdge Bisulfite Conversion System (Promega) according to the manufacturer's instructions. The genomic sequences of the regulatory regions of mouse Shh and human SHH were obtained from the NCBI nucleotide database (Mus musculus: NC_000071.6, Homo sapiens: NG_007504.2), and the CpG island (island) and CpG shores in the regulatory region were identified using Methprimer 2.0 (Li and Dahiya, 2002) (RRID: SCR_010269). […]
as §10
BBN-induced bladder tumors were minced, and then incubated in DMEM (Gibco) containing collagenase I and II (20 mg/ml each) and thermolysin (250 KU/ml) at 37° C. for 2 hours, followed by 5-minute trituration every 30 minutes. […] After lysis of red blood cells in ACK lysis buffer (Gibco), the cells were washed with DMEM containing 10% fetal bovine serum (Millipore) and counted using a hemocytometer (Sigma). […]

Ck18 = details: tumor allografts, nude mice
From the text: as §3

[8] = test system: BBN-induced bladder tumor cells; details: nude mice, treated 2 weeks
From the text: as §3

[9] = test system: luminal and basal signatures; details: tumor allografts, RNA-Seq
Method: Total RNA was extracted with a TRIzol reagent (Thermo Fisher) according to the manufacturer's instructions. RNA-seq libraries were constructed using the TruSeq sample prep kit V2 (Illumina). […] The RNA-seq libraries were sequenced using a NextSeq platform with 75-bp single-end reads.
Differentially expressed genes were analyzed using Cufflinks tools (Trapnell et al., 2012). From all annotated genes, genes were removed when the rpkm average of all sequenced samples is less than 1.0, such that the depth to which the genes are assigned may be low. GSEA was performed according to the instructions (RRID: SCR_003199). To generate a customized gene set for a luminal marker and a basal marker, a representative gene for each signature was obtained from a previous study (Damrauer et al., 2014). The RNA-seq data set used herein was deposited in NCBI GEO (Accession No.: GSE129441).
In addition, using standard luminal and basal signatures obtained from previous research, GSEA of tumor allografts treated with the vehicle control and 5′-azacitidine from RNA-Seq data was performed.

[10] = test system: BBN-induced invasive carcinoma; details: BBN 4 months, then treatment 2 months with continued BBN; found in vehicle control
Method: as §8, §7, §9

[11] = test system: luminal markers (FOXA1 and GATA3) and basal markers (CDH3 and KRT6A); details: J82 tumor xenografts
Method: as §2, §4

With `Nc1ncn([C@@H]2O[C@H](CO)[C@@H](O)[C@H]2O)c(=O)n1` [5′-azacitidine] the “Krt18 expression, increase compared with the vehicle control” value [1] was 2 fold, the “Krt20 expression, increase compared with the vehicle control” value [1] was 1.5 fold and the “Upk1a expression, increase compared with the vehicle control” value [1] was 3 fold. For the same compound, the “Upk1b expression, increase compared with the vehicle control” value [1] was 2 fold, the “Upk2 expression, increase compared with the vehicle control” value [1] was 2 fold and the “Upk3a expression, increase compared with the vehicle control” value [1] was 2.5 fold. For the same compound, the “Upk3b expression, increase compared with the vehicle control” value [1] was 2 fold, the “cancer lesions in the bladder (H&E)” value (J82 cells) was “much smaller cancer lesions” and the “anticancer propagation effect in strains with genetically inhibited stromal Hh signaling pathway” value (BBN-induced tumors) was “disappeared”. For the same compound, the “anticancer initiation effect in TM-treated group (stromal Hh response removed)” value [2] was “reversed”, the “Shh gene expression level, increase compared to the vehicle control” value (Shh gene [3]) was 9 fold and the “Shh gene expression level, increase compared to the vehicle control” value (Shh gene [4]) was 11 fold. For the same compound, the “growth of bladder tumors” value ([5]; immunocompetent wild-type mice) was “completely inhibits”, the “invasive carcinoma (H&E)” value ([5]; treated for 1.5 months, appeared in vehicle control) was “no invasive carcinoma appeared” and the “methylation level in the CpG shore upstream of the CpG island of the Shh promoter region” value [6] was 36%. The “SHH expression, increase compared with untreated control” value (“SHH expression, increase” for short) (J82) was 6 fold, the “SHH expression, increase” value (TCC-SUP) was 3 fold and the “SHH expression, increase” value (T24) was 7 fold. For the same compound, the “methylation level in the CpG shore upstream of the CpG island of the Shh promoter region” value [7] was 43%, the “expression of luminal subtype marker Ck18 (immunostaining)” value (Ck18) was “increased” and the “tumor lesions compared with untreated group (H&E)” value [8] was “smaller tumor lesions”. The “basal marker expression (GSEA)” value [9] was “relatively low level”, the “luminal signature (GSEA)” value [9] was “strong luminal signature” and the “invasive carcinoma (H&E)” value [10] was “not found”. For the same compound, the “basal marker CDH3 expression, decrease compared with the vehicle” value [11] was 6 fold, the “basal marker KRT6A expression, decrease compared with the vehicle” value [11] was 9 fold and the “luminal marker FOXA1 expression, increase compared with the vehicle” value [11] was 1.8 fold. The “luminal marker GATA3 expression, increase compared with the vehicle” value [11] was 1.8 fold.
